Data from patent US8697149B2, “Extracts and compounds from “Tulbaghia violacea” and their use as biological plant protecting agents” (Agrarforum AG, priority 2005, dated 2014).
“And” between values parts separate entries of the source, which are not always exact repeats. Equal values may be shown once.

How the values were obtained:
[1] = test system: Fusarium oxysporum; test: in vitro mycelial growth inhibition, modified agar dilution method
[2] = test system: loose kernel smut (Sporisorium cruentum); test: field trial, sorghum seed treatment against loose kernel smut; type: in vivo, Sporisorium cruentum on sorghum; conditions: sorghum seed inoculated with loose kernel smut spores; extract 2.0 g/l, Thiram 0.25% (w/w); field conditions
[3] = test system: covered kernel smut (Sporisorium sorghi); test: field trial, sorghum seed treatment against covered kernel smut; type: in vivo, Sporisorium sorghi on sorghum; conditions: sorghum seed inoculated with covered kernel smut spores; extract 2.0 g/l, Thiram 0.25% (w/w); field conditions
[4] = aerial part compounds after P-TLC separation
[5] = below soil part compounds after P-TLC separation

Compound | % inhibition (mycelial growth of F. oxysporum) [1, 4] | % inhibition (mycelial growth of F. oxysporum) [1, 5] [%] | further results
2,4-Dithiapentane [Compound A7.1] | 87% | – | –
CSCSCSC [Compound A6.1, 2,4,6-Trithiaheptane] | 85% | – | –
CSCSSCSC [Compound B2.2, 2,4,5,7-Tetrathiaoctane] | – | 87 | –
CSCSSSCSC [Compound B3.2, 2,4,5,6,8-Pentathianonane] | – | 72 | –
CN(C)C(=S)SSC(=S)N(C)C [Thiram] | – | – | Yield [2]: 3.9 ± 1.3a ton ha^−1; Yield [3]: 4.8 ± 0.6a ton ha^−1
Methylthiosulphonate [Compound A7.2] | 50% and 52% | – | –
